Reference: patent US20200069775A1, “BRAIN OSTEOCALCIN RECEPTOR AND COGNITIVE DISORDERS” (The Trustees of Columbia University in the City of New York, priority 2017, published 2020)
Where no end group is shown, it is not given here.

Legend:
[1] = test system: neurons in WT brain sections (ventral tegmental area, substantia nigrae, raphe nuclei); assay: Binding of biotinylated osteocalcin to brain sections (anti-biotin immunofluorescence); design: species or system mouse
Experimental: Brains from 8-week-old mice were snap-frozen in isopentane, and […] thick sections were prepared and desiccated overnight at 4° C. under vacuum. On the following day, sections were rehydrated in ice-cold binding buffer (50 mM TrisHCl [pH 7.4], 10 mM MgCl2, 0.1 mM EDTA and 0.1% BSA) for 15 min and incubated for 1 hr in the presence of biotinylated osteocalcin (3, 30, 300, 3000 ng/ml) or biotynylated recombinant GST as a control (10 μg/ml). After washing in harvesting buffer (50 mM Tris-HCl, pH 7.4), samples were fixed in 4% paraformaldehyde for 15 min, washed in PBS and incubated with goat anti-biotin antibody (1:1000, Vector laboratories) over night at 4° C. Signal was visualized by incubating with anti-goat IgG Cy-3 using Leica DM 5000B microscope (Leica). The binding assays were perform on adjacent sections for each conditions tested. […] This was tested by incubating sections of adult or embryonic (E18.5) WT brains with biotinylated undercarboxylated osteocalcin or GST-biotin alone (30 μg/ml), followed by immunofluorescence analysis using an anti-biotin antibody.

[2] = target: T1, complex containing Gpr158 and the G[…]q subunit (Mus musculus, UniProt Q8C419); assay: Pull-down assay with biotinylated osteocalcin on solubilized hippocampal membranes; assay type: binding; conditions: solubilized membranes from hippocampal tissue
T1 construct: Pull-down assay using biotinylated-osteocalcin on solubilized Ocn−/− hippocampal membrane; from tissue; host or cells: hippocampi of Ocn-/- mice, membranes solubilized with n-octyl beta-D-thioglucopyranoside
T1 sequence (Q8C419 25-1200): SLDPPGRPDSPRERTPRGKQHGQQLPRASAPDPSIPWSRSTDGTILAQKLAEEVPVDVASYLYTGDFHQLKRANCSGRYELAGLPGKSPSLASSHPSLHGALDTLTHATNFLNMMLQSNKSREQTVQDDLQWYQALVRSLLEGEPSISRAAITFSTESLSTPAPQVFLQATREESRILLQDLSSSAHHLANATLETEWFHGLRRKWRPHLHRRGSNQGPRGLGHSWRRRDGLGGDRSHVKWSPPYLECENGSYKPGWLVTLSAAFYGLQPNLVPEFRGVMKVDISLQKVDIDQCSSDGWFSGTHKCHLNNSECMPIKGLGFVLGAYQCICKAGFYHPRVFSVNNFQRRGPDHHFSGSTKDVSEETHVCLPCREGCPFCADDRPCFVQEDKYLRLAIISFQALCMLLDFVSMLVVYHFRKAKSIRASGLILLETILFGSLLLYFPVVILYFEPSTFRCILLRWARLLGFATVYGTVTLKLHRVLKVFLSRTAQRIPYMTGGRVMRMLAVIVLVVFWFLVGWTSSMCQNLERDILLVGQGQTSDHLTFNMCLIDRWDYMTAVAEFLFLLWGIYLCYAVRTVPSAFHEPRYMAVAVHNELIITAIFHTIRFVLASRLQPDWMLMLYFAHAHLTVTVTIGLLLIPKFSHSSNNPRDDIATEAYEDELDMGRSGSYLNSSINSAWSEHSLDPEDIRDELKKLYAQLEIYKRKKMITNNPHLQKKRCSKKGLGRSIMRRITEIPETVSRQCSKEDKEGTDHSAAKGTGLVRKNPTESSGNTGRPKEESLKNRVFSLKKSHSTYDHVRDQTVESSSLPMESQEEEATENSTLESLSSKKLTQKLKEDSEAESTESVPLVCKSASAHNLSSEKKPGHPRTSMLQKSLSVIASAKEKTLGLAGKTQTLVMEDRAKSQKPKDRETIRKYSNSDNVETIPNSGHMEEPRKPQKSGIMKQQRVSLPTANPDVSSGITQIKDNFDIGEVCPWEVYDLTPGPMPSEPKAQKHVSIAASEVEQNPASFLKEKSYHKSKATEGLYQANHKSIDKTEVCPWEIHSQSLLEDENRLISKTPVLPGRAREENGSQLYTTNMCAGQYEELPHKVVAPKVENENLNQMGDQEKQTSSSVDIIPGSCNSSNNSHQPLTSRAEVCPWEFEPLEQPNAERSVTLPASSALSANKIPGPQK
T1 sequence (P21279 1-359 partner): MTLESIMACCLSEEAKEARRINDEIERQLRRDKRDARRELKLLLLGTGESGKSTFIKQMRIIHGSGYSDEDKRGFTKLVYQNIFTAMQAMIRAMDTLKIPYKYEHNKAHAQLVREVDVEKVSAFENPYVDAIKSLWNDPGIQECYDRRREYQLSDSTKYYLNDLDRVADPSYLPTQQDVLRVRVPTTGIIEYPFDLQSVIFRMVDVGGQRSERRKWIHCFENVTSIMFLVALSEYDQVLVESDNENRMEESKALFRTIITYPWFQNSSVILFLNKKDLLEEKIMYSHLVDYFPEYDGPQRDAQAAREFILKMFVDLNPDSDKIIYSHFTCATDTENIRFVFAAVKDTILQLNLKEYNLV
Experimental: For Western blotting, frozen hippocampi from adult mice were lysed and homogenized in 250 µl tissue lysis buffer (25 mM Tris HCl 7.5; 100 mM NaF; 10 mM Na4P2O7; 10 mmM EDTA; 1% NP 40). Proteins were transferred to nitrocellulose membranes, and blocked with TBST-5% BSA for 1 hour. Antibodies: anti-Runx2 M-70 sc-10758, Santa Cruz, anti-BDNF: sc-546, Santa Cruz; anti-tubulin: T6199, Sigma; anti-Gpr158 ABIN1535721, Assay Biotechnology; anti-Na,K ATPase 3010S Cell Signaling , were diluted (1:1000) in TBST-5% BSA and incubated overnight at 4° C. HRP-coupled secondary antibodies and ECL were used to visualize the signal. Western blot bands were quantified using ImageJ software. cAMP accumulation was measured in primary hippocampal neurons by using cAMP Parameter Assay Kit (R&D systems) and performed in primary hippocampal neurons (DIV15) following manufacturer instructions. For IP1 accumulation was determined in primary hippocampal neurons (DIV15) by using IP-One ELISA assay kit (Cisbio) following manufacturer instructions. […]
Streptavidin were added for 30 minutes at room temperature followed by PBS washes. […] For hormonal measurement; circulating levels of the carboxylated, undercarboxylated or uncarboxylated forms of osteocalcin were measured by ELISA. CTX content in serum (ng/ml) were measured with specific ELISAs (RatLaps™ (CTX-I) EIA (Immunodiagnosticsystems).

biotinylated osteocalcin: biotin-labelled undercarboxylated osteocalcin used for binding and pull-down assays (YLGASVPSPDPLEPTREQCELNPACDELSDQYGLKTAYKRIYGITI; ends and bridges not checked; also: biotin label, attachment site not given here)
binding in the brainstem ([1]; WT brain sections): bound to neurons of the raphe nuclei | binding in the midbrain ([1]; WT brain sections): bound to the ventral tegmental area and the substantia nigrae | binding to neuronal populations in brain sections ([1]; adult or embryonic (E18.5) WT brain sections): bound to several neuronal populations in the forebrain, midbrain, and brainstem | specificity of binding in midbrain and brainstem (competition) ([1]; excess of unlabeled osteocalcin or of GST): specific since it was chased away by an excess of unlabeled osteocalcin but not by an excess of GST | binding in pull-down assay [2]: could bind a complex containing Gpr158 and the G[…]q subunit
